From publication PMC9304199, “A small molecule CFTR potentiator restores ATP‐dependent channel gating to the cystic fibrosis mutant G551D‐CFTR” (British Journal of Pharmacology, 2022)

How the values were obtained:
G551D‐CFTR = G551D‐CFTR (Homo sapiens, UniProt P13569, G551D); experiment: Automated planar patch-clamp whole-cell Cl− currents in HEK cells; type: cell-based; set-up: expressed in transfected cells; conditions: for EC50: G551D‐CFTR HEK cells, whole-cell currents, automated electrophysiology, 23°C, read-out: EC50 (μM) (95% CI); for Emax: HEK293, read-out: Maximal effect (%) (95% CI)
Chain of G551D‐CFTR (P13569 whole entry G551D): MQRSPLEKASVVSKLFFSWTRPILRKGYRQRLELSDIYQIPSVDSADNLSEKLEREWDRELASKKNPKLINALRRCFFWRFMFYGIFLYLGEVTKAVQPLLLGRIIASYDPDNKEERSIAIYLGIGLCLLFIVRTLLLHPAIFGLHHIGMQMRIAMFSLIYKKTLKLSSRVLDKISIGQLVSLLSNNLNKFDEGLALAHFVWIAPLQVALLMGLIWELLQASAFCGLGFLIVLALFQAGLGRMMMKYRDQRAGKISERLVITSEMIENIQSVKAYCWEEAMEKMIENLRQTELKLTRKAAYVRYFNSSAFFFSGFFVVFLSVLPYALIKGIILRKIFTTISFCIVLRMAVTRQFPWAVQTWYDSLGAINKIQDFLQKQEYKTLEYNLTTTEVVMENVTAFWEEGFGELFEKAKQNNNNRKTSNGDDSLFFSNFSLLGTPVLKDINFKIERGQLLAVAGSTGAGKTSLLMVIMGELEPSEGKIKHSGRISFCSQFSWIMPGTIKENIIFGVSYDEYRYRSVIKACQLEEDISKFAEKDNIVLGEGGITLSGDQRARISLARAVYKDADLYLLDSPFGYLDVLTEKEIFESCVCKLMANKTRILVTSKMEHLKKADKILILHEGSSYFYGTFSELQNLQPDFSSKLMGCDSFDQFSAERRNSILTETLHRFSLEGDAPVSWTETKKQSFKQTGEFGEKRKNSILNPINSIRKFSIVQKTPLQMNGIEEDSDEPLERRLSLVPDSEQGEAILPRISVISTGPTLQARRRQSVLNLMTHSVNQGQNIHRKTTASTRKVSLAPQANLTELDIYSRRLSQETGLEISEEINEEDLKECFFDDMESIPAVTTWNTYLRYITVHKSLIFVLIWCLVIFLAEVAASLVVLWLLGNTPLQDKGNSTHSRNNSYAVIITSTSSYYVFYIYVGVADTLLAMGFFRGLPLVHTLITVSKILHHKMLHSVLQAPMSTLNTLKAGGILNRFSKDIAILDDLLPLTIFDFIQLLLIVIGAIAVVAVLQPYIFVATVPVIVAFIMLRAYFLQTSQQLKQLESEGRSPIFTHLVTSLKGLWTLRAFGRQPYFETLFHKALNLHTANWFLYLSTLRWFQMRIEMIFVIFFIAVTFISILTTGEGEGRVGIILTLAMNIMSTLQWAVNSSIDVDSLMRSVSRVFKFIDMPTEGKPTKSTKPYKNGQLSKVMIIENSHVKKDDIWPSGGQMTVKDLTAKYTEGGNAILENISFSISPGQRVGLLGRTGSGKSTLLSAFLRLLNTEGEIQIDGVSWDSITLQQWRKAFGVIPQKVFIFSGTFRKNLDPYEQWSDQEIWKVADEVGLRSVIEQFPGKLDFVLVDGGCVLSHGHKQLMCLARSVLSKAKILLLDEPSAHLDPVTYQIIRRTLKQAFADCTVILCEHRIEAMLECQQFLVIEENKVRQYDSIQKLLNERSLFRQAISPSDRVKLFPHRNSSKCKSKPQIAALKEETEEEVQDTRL
Experimental: For CFTR studies using automated electrophysiology and single-channel recording, we used baby hamster kidney (BHK) cells (RRID:CVCL_1915) and human embryonic kidney (HEK) 293 cells (RRID:CVCL_0045) stably expressing wild-type human CFTR and the CFTR variants F508del- and […] et al., [2002]; Xu et al., [2014]). […] HEK cells expressing CFTR variants were generated using the Flp-InTM system as described above for F508del- and G551D-CFTR-expressing FRT cells. They were cultured in Dulbecco's modified Eagle's medium (glucose, 1.5 g·L^-1; sodium pyruvate, 110 mg·L^-1) supplemented with 10% FBS (PAA Laboratories), GlutaMAXTM and hygromycin-B (150 μg·ml^-1; InvitrogenTM, Thermo Fisher Scientific) at 37°C in a humidified atmosphere with 5% CO2. Prior to study, F508del-CFTR expressed in HEK cells was trafficked to the plasma membrane by low temperature incubation (27°C for 24-72 h). The single-channel behaviour of human CFTR in excised membrane patches from different mammalian cell lines heterologously expressing CFTR is equivalent (wild-type CFTR, Chen et al., [2009]; F508del-CFTR, Bose et al., [2019]; and G551D-CFTR, J Liu, Y Wang, Z Cai, and DN Sheppard, unpublished observations). […] The continuous lines are the fit of sigmoidal concentration-response functions to mean data. […] (Figure S2D: Normality Test (Shapiro-Wilk), P = 0.124 (passed); Equal Variance Test (Brown-Forsythe), P = 0.092 (passed)). Click here for additional data file.

[1] = target: T1, native CFTR, genotype F508del/F508del (Homo sapiens, UniProt P13569, DEL508-508); experiment: Ussing chamber CFTR-mediated short-circuit current (Isc) in F508del/F508del human bronchial epithelial cells; type: cell-based; conditions: for EC50: F508del/F508del epithelia of hBE cells, basal F508del‐CFTR expression, Isc, 27°C, read-out: EC50 (μM) (95% CI); for Emax: HBE, read-out: Maximal effect (%) (95% CI)
T1 construct: For functional studies of native CFTR, we used primary cultures of human bronchial epithelial cells; host or cells: primary human bronchial epithelial cells, F508del/F508del, air-liquid interface cultures
T1 sequence (P13569 with tags, fused parts or gaps DEL508-508): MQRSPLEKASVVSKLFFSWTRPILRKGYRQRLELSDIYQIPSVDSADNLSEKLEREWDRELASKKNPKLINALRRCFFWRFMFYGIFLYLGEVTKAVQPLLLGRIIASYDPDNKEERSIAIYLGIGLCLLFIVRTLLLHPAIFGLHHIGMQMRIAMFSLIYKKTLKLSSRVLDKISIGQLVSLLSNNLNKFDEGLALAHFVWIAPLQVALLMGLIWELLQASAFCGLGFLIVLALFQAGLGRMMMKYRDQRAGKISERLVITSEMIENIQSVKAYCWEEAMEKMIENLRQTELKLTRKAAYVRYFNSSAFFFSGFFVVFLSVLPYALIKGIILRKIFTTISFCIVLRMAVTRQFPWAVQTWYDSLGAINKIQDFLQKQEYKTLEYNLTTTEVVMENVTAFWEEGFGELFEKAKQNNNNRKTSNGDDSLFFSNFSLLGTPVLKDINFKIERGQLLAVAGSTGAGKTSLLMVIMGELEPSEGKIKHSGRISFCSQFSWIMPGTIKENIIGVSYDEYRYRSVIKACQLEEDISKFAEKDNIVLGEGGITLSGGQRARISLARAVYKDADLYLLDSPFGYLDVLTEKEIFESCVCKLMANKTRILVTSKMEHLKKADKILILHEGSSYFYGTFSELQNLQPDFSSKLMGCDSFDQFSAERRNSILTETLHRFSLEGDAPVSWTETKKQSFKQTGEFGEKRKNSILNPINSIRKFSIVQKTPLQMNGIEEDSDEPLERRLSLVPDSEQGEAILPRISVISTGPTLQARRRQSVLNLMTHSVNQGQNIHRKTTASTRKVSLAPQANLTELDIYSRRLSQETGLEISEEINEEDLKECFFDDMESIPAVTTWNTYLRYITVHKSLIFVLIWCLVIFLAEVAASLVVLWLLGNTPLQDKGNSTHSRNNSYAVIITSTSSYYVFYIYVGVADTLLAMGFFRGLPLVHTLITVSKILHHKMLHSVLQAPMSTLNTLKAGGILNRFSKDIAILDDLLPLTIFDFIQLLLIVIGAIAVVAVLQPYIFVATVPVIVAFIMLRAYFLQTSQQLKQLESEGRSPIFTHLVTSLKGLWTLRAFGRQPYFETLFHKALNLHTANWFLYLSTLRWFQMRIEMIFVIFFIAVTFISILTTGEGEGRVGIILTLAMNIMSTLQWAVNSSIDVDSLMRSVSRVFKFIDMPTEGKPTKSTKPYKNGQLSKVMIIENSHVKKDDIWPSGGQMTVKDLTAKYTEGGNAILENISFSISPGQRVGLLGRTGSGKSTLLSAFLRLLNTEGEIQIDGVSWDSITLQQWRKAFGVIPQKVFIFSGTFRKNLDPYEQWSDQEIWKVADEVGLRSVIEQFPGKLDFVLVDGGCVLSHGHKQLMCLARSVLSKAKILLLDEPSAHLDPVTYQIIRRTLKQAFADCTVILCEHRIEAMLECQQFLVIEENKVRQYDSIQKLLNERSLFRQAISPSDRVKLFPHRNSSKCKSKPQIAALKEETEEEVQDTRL
Source text: For functional studies of native CFTR, we used primary cultures of human bronchial epithelial cells of genotypes F508del/F508del and F508del/G551D. Passage 1 (P1) human bronchial epithelial cells from SH Randell (University of North Carolina [UNC] Cystic Fibrosis Center Tissue Procurement and Cell Culture Core) were differentiated at an air–liquid interface as described by Neuberger et al., ([2011]) with some modifications. The research conducted on human cells at UNC has been verified as compliant with Pfizer policies, including institutional review board or institutional ethics committee approval. Cells were thawed and expanded in BEGM™ Bronchial Epithelial Cell Growth Medium (cat. no. CC‐3170, Lonza, USA) supplemented with retinoic acid (10 nM) and banked at P2. For functional assays, P2 cells were expanded to P4, and 5 × 10^5 P4 human bronchial epithelial cells were seeded in growth medium on Snapwell filter inserts (cat. no. 3801, Corning, NY, USA). Cells were switched to differentiation medium the following day and cultured submerged for 3 days before the medium was removed from the apical membrane to establish an air–liquid interface. Thereafter, the basolateral medium was changed every 2–3 days and mucus washed from the apical membrane every 2–3 weeks and the day prior to use starting 21 days after initiating air–liquid interface culture.
After >30 days of air–liquid interface culture on Snapwell filter inserts, human bronchial epithelial cells formed well differentiated, electrically tight epithelia (Rt > 200 Ω cm^2). Prior to study, F508del/F508del and F508del/G551D human bronchial epithelial cell cultures were incubated at 37°C and 5% CO2.
Epithelia were mounted in Ussing chambers and data acquired and analysed as described above for Ussing chamber studies of FRT cells heterologously expressing CFTR with the following exceptions. Both the apical and basolateral membranes were bathed in solutions containing (mM): 137 NaCl, 4 KCl, 1.8 CaCl2, 1 MgCl2, 10 Na HEPES, and 10 glucose (pH 7.4 with NaOH). Epithelia of F508del/G551D human bronchial epithelial cells were studied at 35°C, whereas those of F508del/F508del human bronchial epithelial cells were assayed at 27°C to maintain the apical membrane expression of F508del‐CFTR. After cancelling voltage offsets, transepithelial voltage was clamped at 0 mV and short‐circuit current (Isc) recorded continuously. The protocol to record CFTR‐mediated Isc was the same as for ICl ^apical measurements except that amiloride (30 μM, apical solution) was added to inhibit the epithelial Na^+ channel before forskolin (10 μM, apical and basolateral solutions) addition.

SMILES | EC50 (G551D‐CFTR) [µM] | Emax (G551D‐CFTR) [%] | EC50 [1] [µM] | Emax [1] [%]
Cc1ncccc1CNC(=O)c1ccc2c(c1)CC[C@H]1C[C@](O)(CCC(F)(F)F)CC[C@]21Cc1ccccc1 (racemic) [CP‐628006, rac‐(4bR,7R,8aS)‐4b‐benzyl‐7‐hydroxy‐N‐((2‐methylpyridin‐3‐yl)methyl)‐7‐(3,3,3‐trifluoropropyl)‐4b,5,6,7,8,8a,9,10‐octahydrophenanthrene‐2‐carboxamide] | 5.13 | 72 | 0.062 | 56
CC(C)(C)c1cc(C(C)(C)C)c(NC(=O)c2c[nH]c3ccccc3c2=O)cc1O [ivacaftor, reference compound] | 0.82 | 70 | 0.002 | 102
